{"source": "patent US20260364124A1", "about": "“ANTI-C. DIFFICILE SMALL MOLECULE METABOLITES FROM DIET AND GUT MICROBIOME” (The Children's Medical Center Corporation, priority 2023, published 2026)", "tested_on": "B. uniformis AgshD", "experiment": "In vitro aglycone liberation by B. uniformis gshD deletion mutant (LC-MS)", "parameters": "species or system Bacteroides uniformis ATCC 8492", "settings": "role: substrate; B. uniformis AgshD (FIGS. 5A, 5B)", "description": "FIGS. 5A and 5B show microbiome-mediated polyphenol aglycone liberation. […] Step 2: Spent media was filter-sterilized. Step 3: C. difficile was grown in spent media from either vehicle or polydatin (top).\nGeneration of Bacteroides gene deletion mutants: Clean deletion mutants were created by allelic replacement whereby Bacteroides uniformis ATCC 8492 gshD (BACUNI_00919)was deleted. A modified pKNOCK-bla-ermGb suicide vector, pKNOCK-bla-ermGb_pheS*, that was previously engineered with a counter-selection system mediated by a variant phenylalanyl-tRNA synthetase (PheSA303G), lethal in the presence of 4-chloro-phenylalanine was leveraged. To generate deletion constructs, 1 kb regions flanking the genomic region-of-interest were amplified by PCR (Platinum SuperFi PCR Master Mix), purified, and cloned into the pKNOCK-bla-ermGb_pheS* plasmid in a three-piece ligation reaction. To mobilize resulting plasmids into Bacteroides, a triparental mating strategy was implemented. Overnight cultures of Bacteroides grown in BSG were diluted 50-fold into fresh pre-reduced BSG and grown to early exponential phase (OD600 ~0.1). The recipient strain was centrifuged at 4,000 rpm for 5 minutes and resuspended in 200 μL of 1× PBS. One-day-old E. coliDH5α lambda pir donor strain and E. coliDH5α helper strain with pRK 231 were scrapped from LB agar plates into 200 μL of 1× PBS. […]", "note": "“Also recorded” adds a separate entry of the source.", "data": [{"smiles": "OC[C@H]1O[C@@H](Oc2cc(O)cc(/C=C/c3ccc(O)cc3)c2)[C@H](O)[C@@H](O)[C@@H]1O", "note": "[polydatin]", "values": [{"measurement": "liberation of resveratrol from polydatin by gshD mutant", "value": "lacking the ability to metabolize polydatin; also recorded: ablated in B. uniformis AgshD"}]}]}
